From US12054495B2, “Substituted macrocyclic compounds and related methods of treatment” (Alkermes, Inc., priority 2019, dated 2024) come the findings set out here.

For data set [1] the following is noted: amide bond, 13-membered ring, HATU/DIEA, MeCN, 2.0 h.
The test system of a further data set is MDR1. The data set can be described thus: MDCK-MDR1 permeability assay. The settings on record: dog; for Papp A→B at 2 h, 3 μM: MDCK-MDR1, MDCK-MDR1 cells, apical to basolateral, 3 μM test compound, 2 hours at 37 degrees C; for efflux ratio at 2 h, 3 μM: MDCK-MDR1, Papp (basolateral to apical) divided by Papp (apical to basolateral), MDCK-MDR1 cells, read-out: Efflux ratio (ER). It counts as in vitro ADME. The protocol: The bidirectional permeability (Apical to Basal and Basal to Apical directions) of test compounds in MDCK-MIDR1 cells were evaluated using MDCK-MIDR1 cells seeded in Solvo PreadyPort™ MIDCK 96-well plate. Once the plate was received from ReadyCell (Barcelona, Spain), it was treated as per PreadyPort™ user's manual.
For the Apical to Basolateral (A→B) permeability, 80 μL of test compound (3 μM) co-dosed with LY (Lucifer Yellow) (100 μM) in HBSS (Hank's Balanced Salt Solution) assay buffer was added to the donor side (A) while 250 μL of HBSS buffer was added to the receiver side (B). For the Basolateral to Apical (B→A) permeability, 255 μL of test compound (3 μM) in HBSS assay buffer was added to the donor side (B) while 75 μL of HBSS buffer containing LY (100 μM) was added to the receiver side (A).
The plate was placed in an incubator set at 37 degrees C. After 10 minutes of pre-warming, 5 μL aliquot was taken from donor compartment and set aside as the dosing solution. The MDCK-MDR1 incubation plate was placed back into the incubator for 2 hours of incubation at 37 degrees C. After 2 hours of incubation, 25 μL and 5 μL aliquots were removed from the receiver and donor sides, respectively. To the 5 μL aliquots taken from the donor sides (before and after a 2-hour incubation) were diluted with 20 μL of the HBSS buffer. All samples were mixed with 150 μL with acetonitrile containing internal standard (IS) and 200 μL water, and analyzed by LC-MS/MS.
The apparent permeability (Papp) was calculated using the following formula: Papp=dQ/dt×1/A×C0 where: • dQ/dt: amount of translocated material over incubation time (nmol/s) • A: area of insert (0.14 cm^2 for PreadyPort™ MDR1-96) • C0: initial concentration of product applied in apical (A→B) or basal (B→A) compartment (nmol/mL)
The efflux ratio (ER) was measured by dividing the Papp (basolateral to apical direction) by Papp (apical to basolateral direction). It is a general measure of the involvement of active processes. An ER>2 is considered positive for active transport.
The data reported in Table 3 were obtained according to the MDCK-MIDR1 permeability assay described above.

A further data set has as its system human hepatocytes. The data set can be described thus: Hepatocytes stability assay (human hepatocytes). It counts as in vitro ADME. The following applies: scaled hepatic clearance divided by liver blood flow, fu assumed unity. The protocol: (§1) In vitro metabolic stability was assessed using cryopreserved hepatocytes from male Sprague Dawley rats and a pool of 50 mixed gender humans (BioIVT, Baltimore, MD). The incubation mixtures were prepared by mixing 250 μL of pre-warmed KHB (Krebs-Henseleit buffer) containing 2×10^6 cell/mL of hepatocytes with 250 μL of pre-warmed KHB buffer containing 2 μM of test compounds in a 48-well plate, giving a final concentration of 1 μM test compound (0.1% DMSO) and 1×10^6 cell/mL of hepatocytes. The reaction mixture was incubated at 37 degrees C. A 50 μL aliquot of incubation mixture was taken at time points (0, 15, 30, 60, 120 and 240 minutes) and transferred into a 96-well plate containing 300 μL ice-cold acetonitrile (containing 30 ng/mL of labetalol and 10 ng/mL of Naltrexone-d3 as internal standards) and immediately placed in ice to terminate the reaction. Samples were centrifuged, and supernatants were transferred into 96-well plates for liquid chromatography with tandem mass spectrometry (LC-MS/MS) analysis to monitor the depletion of the test compound.
(§2) Data was calculated as percent remaining by assuming zero-minute time point peak area ratio (analyte/IS) as 100% and dividing remaining time point peak area ratios by zero-minute time point peak area ratio. Data were fitted to a first-order decay model to determine half-life. From a plot of log (ln) peak area against time, the slope of the line was determined. Subsequently, half-life (T1/2) and intrinsic clearance (CLint) were calculated using the equations below: Elimination rate constant (k)=(−slope) Half-life (T1/2)min=0.693/k Intrinsic Clearance (CLint) (mL/min/million cells)=(V×0.693)/T1/2 V=incubation volume mL/number of cells The in vitro T1/2 was converted to in vitro intrinsic clearance (CLint,hep) in units of mL/min/kg using the formula shown below:
(§3) [formula] The in vitro intrinsic clearance (CLint,hep) was scaled to in vivo hepatic clearance (CL,hep) using the following equation which was adapted from a well-stirred model.
(§4) [formula] where Q is the liver blood flow and fu is the fraction unbound (assumed to be unity in this case). All parameters used in the calculation are shown below (Table 4).
(§5) The extraction ratio (ER) was calculated by dividing the hepatic clearance of a compound to the liver blood flow. The data reported in Table 5 were obtained according to the human hepatocytes stability assay described above.

Data set [2] in a line: Hepatocytes stability assay (human hepatocytes). It counts as in vitro ADME. The following applies: both sexes, cryopreserved hepatocytes, 1 μM test compound, 1×10^6 cell/mL, 37 degrees C, read-out: CLint (μL/min/million cells). The protocol: as §1, §2, §3, §4, §5
The target in data set [3] is T1, human orexin-2 receptor (OX2R) (Homo sapiens, UniProt O43614).
T1 construct: expressed in transfected cells
T1 sequence (O43614 1-444): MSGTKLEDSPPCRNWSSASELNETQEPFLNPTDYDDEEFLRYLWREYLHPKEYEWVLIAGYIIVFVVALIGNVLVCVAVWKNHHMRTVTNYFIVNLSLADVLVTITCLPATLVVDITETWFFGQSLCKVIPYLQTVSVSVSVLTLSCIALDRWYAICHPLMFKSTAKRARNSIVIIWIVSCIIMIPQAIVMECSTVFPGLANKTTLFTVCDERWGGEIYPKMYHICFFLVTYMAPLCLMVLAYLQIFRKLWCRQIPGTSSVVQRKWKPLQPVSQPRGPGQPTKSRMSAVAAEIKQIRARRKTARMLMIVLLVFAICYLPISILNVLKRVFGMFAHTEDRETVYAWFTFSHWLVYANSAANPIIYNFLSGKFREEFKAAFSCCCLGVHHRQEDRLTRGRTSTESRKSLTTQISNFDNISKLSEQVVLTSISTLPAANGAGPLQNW
The data set can be described thus: Human OX2R IP1 assay. It counts as cell-based. The settings on record: T-Rex CHO cells stably overexpressing human OX2R, IP1 accumulation, 1 hr at 37 degrees C; mean EC50; ∧ = racemic mixture. The procedure: T-Rex CHO cells stably overexpressing the human orexin-2 receptor (OX2R) were induced overnight with 1 μg/mL of doxycycline in a T225 flask. 24 hours post induction, cells were lifted with accutase and plated into a 384-well proxy plate at 30,000 cells/well. Cells were then treated with different test compounds in 1× stimulation buffer containing 10 mM Hepes, 1 mM CaCl2), 0.5 mM MgCl2, 4.2 mM KCl, 146 mM NaCl, 5.5 mM glucose, and 50 mM LiCl, pH 7.4, for 1 hr at 37 degrees C. Following incubation, the reaction was terminated by the addition of detection mix, which is composed of IP1-d2 and anti-IP1-cryptate diluted in lysis buffer as well as 1× stimulation buffer. The plates were allowed to incubate for 1 hour at room temperature and were then read in the EnVision® multimode plate reader, measuring inositol phosphate levels.
Cisbio IP1 is a cell-based functional assay quantifying the accumulation of inositol monophosphate (IP), a metabolite released as a result of orexin 2 receptor activation through the phospholipase C-Gq signaling pathway. This is a competitive immunoassay in which the IP1 produced by the cells upon receptor activation competes with the IP1 analog coupled to the d2 fluorophore (acceptor) for binding to an anti-IP1 monoclonal antibody labeled with Eu cryptate (donor). The measured HTRF-FRET based signal is inversely proportional to the IP1 concentration produced.
The EC50 values reported in Table 2 were obtained according to the human OX2R IP1 assay described above. Data are the mean EC50 values ±S.E.M. The compound methyl (2R,3S)-3-((methylsulfonyl)amino)-2-(((cis-4-phenylcyclohexyl)oxy)methyl)-piperidine-1-carboxylate is a reference compound which is disclosed in Example 5 of PCT publication no. WO2017/135306.

Read-outs that look alike come from different tables or passages of the source.

The compound `CC(C)(C)OC(=O)N([C@H]1CCN2C(=O)COc3ccccc3C3CCC(CC3)OC[C@@H]12)S(C)(=O)=O` returned a ring closure, isolated yield in data set [1] (from CC(C)(C)OC(=O)N([C@H]1CCN[C@H]1COC1CCC(c2ccccc2OCC(=O)O)CC1)S(C)(=O)=O, 2.4 mM) of 31%.
The compound `CC(C)(C)OC(=O)N([C@H]1CCN2C(=O)COc3ncccc3C3CCC(CC3)OC[C@@H]12)S(C)(=O)=O` registered a ring closure, isolated yield in data set [1] (from CC(C)(C)OC(=O)N([C@H]1CCN[C@H]1COC1CCC(c2cccnc2OCC(=O)O)CC1)S(C)(=O)=O, 9.5 mM) of 41.4%.
Regarding `CS(=O)(=O)N[C@@H]1CCCN2C(=O)COc3cccnc3[C@H]3CC[C@H](CC3)OC[C@H]12` (racemic) [Compound 15], in the data set with MDR1, the apparent permeability from apical to basolateral (Papp A→B) at 2 h, 3 μM was found to be 0.08 ×10⁻⁶ cm/s and the efflux ratio at 2 h, 3 μM is 22. The “Extraction Ratio (ER)” value with human hepatocytes is given as under 0.22. The hepatocyte CLint at 1 μM in data set [2] is under 1.9 µL/min/1e6 cells. In addition, the 50% effective concentration (EC50) in data set [3] was in the range of 100 to 1000 nM.
For `CS(=O)(=O)N[C@@H]1CCCN2C(=O)COc3ccncc3[C@H]3CC[C@H](CC3)OC[C@H]12` (racemic) [Compound 45] the same measures were 0.15 ×10⁻⁶ cm/s, 12, under 0.22, under 1.9 µL/min/1e6 cells and 100 to 1000 nM.
`CS(=O)(=O)N[C@@H]1CCCN2C(=O)COc3cnccc3[C@H]3CC[C@H](CC3)OC[C@H]12` (racemic) [Compound 47]: in the data set on MDR1, the Papp A→B at 2 h, 3 μM was 0.09 ×10⁻⁶ cm/s and the efflux ratio at 2 h, 3 μM is 49. For the same compound, the “Extraction Ratio (ER)” value with human hepatocytes came out at 0.31. Besides, the hepatocyte CLint at 1 μM in data set [2] was determined as 3 µL/min/1e6 cells. Moreover, in data set [3], the half-maximal effective concentration (EC50) is under 100 nM.
Consider `CS(=O)(=O)N[C@H]1CCCN2C(=O)COc3ccccc3C3CC[C@@H](CO3)OCC12` (some centres unmarked) [Compound 8], for which, in the data set with MDR1, the apical-to-basolateral permeability (Papp A→B) at 2 h, 3 μM came to 0.48 ×10⁻⁶ cm/s and the efflux ratio at 2 h, 3 μM is 3.8. For the same compound, the “Extraction Ratio (ER)” value in the data set on human hepatocytes is reported as 0.46. Besides, in data set [2], the hepatocyte CLint at 1 μM turned out to be 5.8 µL/min/1e6 cells. Further, in data set [3], the EC50 was under 100 nM.
For `CS(=O)(=O)N[C@H]1CCCN2C(=O)COc3ccccc3C3CC[C@H](CO3)OCC12` (some centres unmarked) [Compound 9] the same measures were 0.45 ×10⁻⁶ cm/s, 2.6, 0.50, 6.7 µL/min/1e6 cells and under 100 nM.
As to `C[C@@H]1Oc2ccccc2C2CCC(CC2)OCC2[C@@H](NS(C)(=O)=O)CCCN2C1=O` (some centres unmarked) [Compound 37], in the data set on MDR1, the Papp A→B at 2 h, 3 μM worked out at 0.91 ×10⁻⁶ cm/s and the efflux ratio at 2 h, 3 μM amounted to 27. Further, the “Extraction Ratio (ER)” value in the data set on human hepatocytes is given as 0.82. Further, the hepatocyte CLint at 1 μM in data set [2] was 30 µL/min/1e6 cells. The 50% effective concentration (EC50) in data set [3] is under 100 nM.
Take `C[C@H]1Oc2ccccc2C2CCC(CC2)OCC2[C@@H](NS(C)(=O)=O)CCCN2C1=O` (some centres unmarked) [Compound 38]: in the data set on MDR1, the apical-to-basolateral permeability (Papp A→B) at 2 h, 3 μM is 0.77 ×10⁻⁶ cm/s and the efflux ratio at 2 h, 3 μM is 18. Moreover, the “Extraction Ratio (ER)” value in the data set on human hepatocytes was 0.82. Besides, in data set [2], the hepatocyte CLint at 1 μM came out at 30 µL/min/1e6 cells. Also, the EC50 in data set [3] is under 100 nM.
Take `C[C@H]1CN2CCC[C@H](NS(C)(=O)=O)C2COC2CCC(CC2)c2ccccc2O1` (some centres unmarked) [Compound 48]: in the data set with MDR1, the apical-to-basolateral permeability (Papp A→B) at 2 h, 3 μM was 7.3 ×10⁻⁶ cm/s and the efflux ratio at 2 h, 3 μM was 1.5. Besides, in the data set on human hepatocytes, the “Extraction Ratio (ER)” value came to 0.90. In data set [2], the hepatocyte CLint at 1 μM amounted to 60 µL/min/1e6 cells. Besides, the 50% effective concentration (EC50) in data set [3] was under 100 nM.
For `[2H][C@@H]1[C@@H]2C[C@H]([2H])[C@@]([2H])(c3cc(F)cc(F)c3OCC(=O)N3CCC[C@H](NS(C)(=O)=O)C3CO2)[C@@H]1[2H]` (some centres unmarked) [Compound 50] the same measures were 1.2 ×10⁻⁶ cm/s, 21, 0.70, 16 µL/min/1e6 cells and under 100 nM.
`[2H]C1([2H])COc2ccccc2C2CCC(CC2)OCC2[C@@H](NS(C)(=O)=O)CCCN21` (some centres unmarked) [Compound 60]: in the data set with MDR1, the Papp A→B at 2 h, 3 μM is 8.8 ×10⁻⁶ cm/s and the efflux ratio at 2 h, 3 μM was found to be 1.4. Moreover, the “Extraction Ratio (ER)” value in the data set on human hepatocytes turned out to be 0.89. For the same compound, in data set [2], the hepatocyte CLint at 1 μM was 54 µL/min/1e6 cells. Also, the concentration giving a half-maximal response (EC50) in data set [3] fell in the range of 100 to 1000 nM.
For `C[C@H]1COc2ccccc2C2CCC(CC2)OCC2[C@@H](NS(C)(=O)=O)CCCN21` (some centres unmarked) [Compound 62] the same measures were 6.8 ×10⁻⁶ cm/s, 2.2, 0.89, 18 µL/min/1e6 cells and over 1000 nM.
For `C[C@@H]1COc2ccccc2C2CCC(CC2)OCC2[C@@H](NS(C)(=O)=O)CCCN21` (some centres unmarked) [Compound 63] the same measures were 9.1 ×10⁻⁶ cm/s, 0.75, 0.86, 40 µL/min/1e6 cells and over 1000 nM.
